US20240010684A1, “MASP INHIBITORY COMPOUNDS AND USES THEREOF” (BAYER AKTIENGESELLSCHAFT, priority 2020, published 2024)
*1 amine or outer side, *2 acyl side, *3 side chain or, on linkers, in order; H or OH if unused. Where a SMILES comes first, the peptide text is derived from it. Bridges are numbered along the chain shown (N, C = ends). [ ]: non-standard residue; d: D form. ξ: configuration not given here. Oic = O=C(O)[C@@H]1C[C@@H]2CCCC[C@@H]2N1; X5 = NCCC[C@H](N[*:1])C(=O)NC(=O)[*:2]; Arg(Me) = CNC(=N)NCCC[C@H](N)C(=O)O; tBuAla = CC(C)(C)C[C@H](N)C(=O)O; Pen = CC(C)(S)[C@H](N)C(=O)O; ξIle = CC[C@H](C)C(N)C(=O)O; NMeC = CN[C@@H](CS)C(=O)O; Orn = NCCC[C@H](N)C(=O)O; Dap = NC[C@H](N)C(=O)O; Ahx = NCCCCCC(=O)O

Key:
[1] = test system: Human C3-DEPOSITION SERUM; assay: C3 deposition assay, human serum on mannan-coated plates; assay type: biochemical; settings: Average IC50, read-out: Human C3-DEPOSITION SERUM IC50
Description: 3. C3 Deposition Assay (Human, Rat, Mouse, Dog, Pig))
The C3 deposition assay was conducted essentially as described (reference). Multiwell plates (Greiner-Nunc 384 Maxi Sorp #464718) were coated over night with Mannan from Saccharomyces cerevisiae (Sigma M7504, 10 μg/mL in 0.05 M carbonate-bicarbonate buffer, pH 9.6) at 4° C. Wells were washed three times with TBS and subsequently incubated for 2 hours with 50 μL of 1% bovine serum albumin (BSA) in Tris-buffered saline (TBS) at 37° C. in order to block non-specific binding. After this step and each of the following incubation steps wells were washed three times with C3 wash buffer (TBS; 0.05% Tween 20; 5 mM CaCl2). […] When appropriately developed the color reaction was stopped by addition of 25 μL of stop solution (Sigma S5814) and quantified on a photometer by measuring absorption at a wavelength of 450 nm. Antibodies were diluted in C3 wash buffer supplemented with 0.5% BSA.

[2] = target: human MASP2 (Homo sapiens (Human), UniProt O00187); assay: Biochemical human MASP2 assay (FRET substrate); settings: Average IC50; recombinant human MASP2; read-out: human MASP2 IC50
Summary of the method: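 IC50 came from % inhibition across compound concentrations, with fluorescence (ex 340 nm, em 490 nm) read after 60-120 min at 32 C. Substrate was a DABCYL FRET peptide, added as a 60 μM solution, cleaved by HEK293-expressed, Ni-NTA-purified mature recombinant human MASP2.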

[3] = target: human MASP1 (Homo sapiens (Human), UniProt P48740); assay: Biochemical human MASP1 assay (FRET substrate); settings: Average IC50; recombinant human MASP1; read-out: human MASP1 IC50
Summary of the method: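 IC50 derived from % inhibition versus compound concentration, with fluorescence increase read at 320/420 nm after 60-120 min at 32 C. Enzyme: HEK293-secreted, His-tagged human MASP1 fragment 297-699 at 20 nM in HEPES pH 8,0 buffer with NaCl, CHAPS, glutathione; substrate ABZ-peptide-Lys(Dnp)-NH2 added as 20 μM solution.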

Sequence of human MASP1 (P48740 other isoform, or with tags, fused parts or gaps): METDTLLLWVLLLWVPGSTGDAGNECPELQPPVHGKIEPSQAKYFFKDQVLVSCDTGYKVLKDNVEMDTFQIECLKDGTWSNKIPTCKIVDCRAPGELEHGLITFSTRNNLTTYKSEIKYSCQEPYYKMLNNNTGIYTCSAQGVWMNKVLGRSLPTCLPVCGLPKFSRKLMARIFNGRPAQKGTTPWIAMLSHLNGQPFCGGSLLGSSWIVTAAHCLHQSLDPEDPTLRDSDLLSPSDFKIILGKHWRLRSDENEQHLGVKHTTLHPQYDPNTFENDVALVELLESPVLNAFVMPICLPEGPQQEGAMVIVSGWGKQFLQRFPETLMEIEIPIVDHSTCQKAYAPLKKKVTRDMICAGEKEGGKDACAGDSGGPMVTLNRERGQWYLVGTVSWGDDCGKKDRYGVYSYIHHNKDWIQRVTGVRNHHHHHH
Sequence of human MASP2 (O00187 other isoform, or with tags, fused parts or gaps): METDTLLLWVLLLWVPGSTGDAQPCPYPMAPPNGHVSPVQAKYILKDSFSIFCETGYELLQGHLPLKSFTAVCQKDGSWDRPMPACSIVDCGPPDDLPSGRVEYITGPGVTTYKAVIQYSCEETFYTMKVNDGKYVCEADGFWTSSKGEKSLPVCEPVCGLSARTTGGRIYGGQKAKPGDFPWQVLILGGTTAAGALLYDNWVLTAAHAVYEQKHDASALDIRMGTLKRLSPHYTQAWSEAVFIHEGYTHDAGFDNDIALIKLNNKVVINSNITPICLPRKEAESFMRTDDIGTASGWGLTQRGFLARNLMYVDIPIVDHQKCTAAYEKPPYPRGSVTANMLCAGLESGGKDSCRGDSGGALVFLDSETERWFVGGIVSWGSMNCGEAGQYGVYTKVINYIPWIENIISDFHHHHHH

Row | Compound | IC50 [1] [nM] | IC50 [2] [nM] | IC50 [3] [nM]
1 | CC[C@H](C)C1NC(=O)[C@@H]2CSSC[C@H](NC(=O)[C@H]([C@@H](C)CC)NC(=O)[C@H](C)NC(=O)[C@@H](N)CCCNC(=O)C[C@@H](C(N)=O)NC(=O)[C@@H]3CCCN3C1=O)C(=O)N[C@@H](CO)C(=O)N[C@@H](CCCNC(=N)N)C(=O)N[C@@H](CO)C(=O)N[C@@H](CC(C)(C)C)C(=O)N1CCC[C@H]1C(=O)N1CCC[C@H]1C(=O)N[C@@H]([C@@H](C)CC)C(=O)N2C (stereo partly drawn) [Example 44] (H-[Orn]AICSRS[tBuAla]PPI[NMeC][ξIle]PD-NH2; lactam 1-15; disulfide 4-12) | 23.7 | 230 | 4.7
2 | CC[C@H](C)[C@@H]1NC(=O)[C@H](CN)NC(=O)[C@@H]2CCCN2C(=O)[C@H]([C@@H](C)CC)NC(=O)[C@H]2NC(=O)[C@H]([C@@H](C)CC)NC(=O)[C@@H]3C[C@@H]4CCCC[C@@H]4N3C(=O)[C@H]3CCCN3C(=O)[C@H](CC(C)C)NC(=O)[C@H](CO)NC(=O)[C@H](CCCNC(=N)N)NC(=O)[C@H](CO)NC(=O)[C@H](CSSC2(C)C)NC1=O [Example 87] (cyclo(CSRSL[dP][Oic]I[Pen]IP[Dap]I); disulfide 1-9) | 78.6 | 700 | 46
3 | CC[C@H](C)[C@@H]1NC(=O)[C@H](CN)NC(=O)[C@H](CN)NC(=O)[C@@H]2CCCN2C(=O)[C@H]([C@@H](C)CC)NC(=O)[C@H]2NC(=O)[C@H]([C@@H](C)CC)NC(=O)[C@@H]3CCCN3C(=O)[C@@H]3CCCN3C(=O)[C@H](CC(C)(C)C)NC(=O)[C@H](CO)NC(=O)[C@H](CCCNC(=N)N)NC(=O)[C@H](CO)NC(=O)[C@H](CSSC2(C)C)NC1=O [Example 97] | 56.4 | 760 | 5
4 | CC[C@H](C)[C@@H]1NC(=O)[C@@H]2CCCN2C(=O)[C@H]([C@@H](C)CC)NC(=O)[C@H]2NC(=O)[C@H]([C@@H](C)CC)NC(=O)[C@@H]3CCCN3C(=O)[C@@H]3CCCN3C(=O)[C@H](CC(C)(C)C)NC(=O)[C@H](CO)NC(=O)[C@H](CCCNC(=N)N)NC(=O)[C@H](CO)NC(=O)[C@H](CSSC2(C)C)NC1=O [Example 88, N-{3-[(6S,9S,12S,15S,18R,21S,23aS,29S,32R,35S,37aS,42aS)-21,29,35-tri[(2S)-butan-2-yl]-6-(2,2-dimethylpropyl)-9,15-bis(hydroxymethyl)-43,43-dimethyl-5,8,11,14,17,20,23,28,31,34,37,42-dodecaoxotetracontahydro-1H,5H-18,32-(methanodithiomethano)tripyrrolo[1,2-a:1′,2′-d:1″,2″-p][1,4,7,10,13,16,19,22,25,28,31,34]-dodecaazacyclohexatriacontin-12-yl]propyl}guanidine hydrogen chloride] (cyclo(CSRS[tBuAla]PPI[Pen]IPI); disulfide 1-9) | 50000 | 1000 | 1000
5 | CC[C@H](C)[C@@H]1NC(=O)[C@H](CN)NC(=O)[C@@H]2CCCN2C(=O)[C@H]([C@@H](C)CC)NC(=O)[C@H]2NC(=O)[C@H]([C@@H](C)CC)NC(=O)[C@@H]3CCCN3C(=O)[C@@H]3CCCN3C(=O)[C@H](CC(C)(C)C)NC(=O)[C@H](CO)NC(=O)[C@H](CCCNC(=N)N)NC(=O)[C@H](CO)NC(=O)[C@H](CSSC2(C)C)NC1=O [Example 55, N-{3-[(6S,9S,12S,15S,18R,21S,24S,26aS,32S,35R,38S,40aS,45aS)-24-(aminomethyl)-21,32,38-tri[(2S)-butan-2-yl]-6-(2,2-dimethylpropyl)-9,15-bis(hydroxymethyl)-46,46-dimethyl-5,8,11,14,17,20,23,26,31,34,37,40,45-tridecaoxotetratetracontahydro-1H-18,35-(methanodithiomethano)tripyrrolo[1,2-a:1′,2′-d:1″,2″-p][1,4,7,10,13,16,19,22,25,28,31,34,37]tridecaazacyclononatriacontin-12-yl]propyl}guanidine] (cyclo(CSRS[tBuAla]PPI[Pen]IP[Dap]I); disulfide 1-9) | 382 | 900 | 46
6 | CC[C@H](C)[C@@H]1NC(=O)[C@H](C)NC(=O)CCCCCNC(=O)C[C@@H](C(N)=O)NC(=O)[C@@H]2CCCN2C(=O)[C@H]([C@@H](C)CC)NC(=O)[C@H]2NC(=O)[C@H]([C@@H](C)CC)NC(=O)[C@@H]3C[C@@H]4CCCC[C@@H]4N3C(=O)[C@H]3CCCN3C(=O)[C@H](CC(C)C)NC(=O)[C@H](CO)NC(=O)[C@H](CCCNC(=N)N)NC(=O)[C@H](CO)NC(=O)[C@H](CSSC2(C)C)NC1=O [Example 43] | 28.2 | 120 | 6.7
7 | CC[C@H](C)[C@@H]1NC(=O)CCCCCNC(=O)[C@@H]2CCCN2C(=O)[C@H]([C@@H](C)CC)NC(=O)[C@H]2NC(=O)[C@H]([C@@H](C)CC)NC(=O)[C@@H]3CCCN3C(=O)[C@@H]3CCCN3C(=O)[C@H](CC(C)(C)C)NC(=O)[C@H](CO)NC(=O)[C@H](CCCNC(=N)N)NC(=O)[C@H](CO)NC(=O)[C@H](CSSC2(C)C)NC1=O [Example 51] (cyclo([Ahx]ICSRS[tBuAla]PPI[Pen]IP); disulfide 3-11) | 28.2 | 17 | 6.3
8 | CC[C@H](C)[C@@H]1NC(=O)[C@H](C)NC(=O)CCCCCNC(=O)[C@H](CC(=O)O)NC(=O)[C@@H]2CCCN2C(=O)[C@H]([C@@H](C)CC)NC(=O)[C@@H]2CSSC[C@H](NC1=O)C(=O)N[C@@H](CO)C(=O)N[C@@H](CCCNC(=N)N)C(=O)N[C@@H](CO)C(=O)N[C@@H](CC(C)(C)C)C(=O)N1CCC[C@H]1C(=O)N1CCC[C@H]1C(=O)N[C@@H]([C@@H](C)CC)C(=O)N2C [Example 32] (cyclo(AICSRS[tBuAla]PPI[NMeC]IPD[Ahx]); disulfide 3-11) | 121 | 63.5 | 22
9 | CC[C@H](C)[C@@H]1NC(=O)CNC(=O)[C@H](CN)NC(=O)[C@H](CN)NC(=O)[C@H](CC(=O)O)NC(=O)[C@@H]2CCCN2C(=O)[C@H]([C@@H](C)CC)NC(=O)[C@@H]2CSSC[C@H](NC1=O)C(=O)N[C@@H](CO)C(=O)N[C@@H](CCCNC(=N)N)C(=O)N[C@@H](CO)C(=O)N[C@@H](CC(C)C)C(=O)N1CCC[C@H]1C(=O)N1CCC[C@H]1C(=O)N[C@@H]([C@@H](C)CC)C(=O)N2 [Example 23] (cyclo(CIPD[Dap][Dap]GICSRSLPPI); disulfide 1-9) | 121 | 20 | 180
10 | CC[C@H](C)[C@@H]1NC(=O)[C@H](CN)NC(=O)[C@H](CN)NC(=O)[C@H]([C@@H](C)CC)NC(=O)[C@H]2NC(=O)[C@H]([C@@H](C)CC)NC(=O)[C@@H]3CCCN3C(=O)[C@@H]3CCCN3C(=O)[C@H](CC(C)(C)C)NC(=O)[C@H](CO)NC(=O)[C@H](CCCNC(=N)N)NC(=O)[C@H](CO)NC(=O)[C@H](CSSC2(C)C)NC1=O [Example 57, N-{3-[(5aS,11S,14S,17S,20S,23R,26S,29S,32S,35S,38R,41S,43aS)-29,32-bis(aminomethyl)-26,35,41-tri[(2S)-butan-2-yl]-11-(2,2-dimethylpropyl)-14,20-bis(hydroxymethyl)-44,44-dimethyl-5,10,13,16,19,22,25,28,31,34,37,40,43-tridecaoxodotetracontahydro-5H-23,38-(methanodithiomethano)dipyrrolo[1,2-a:1′,2′-d]-[1,4,7,10,13,16,19,22,25,28,31,34,37]tridecaazacyclononatriacontin-17-yl]propyl}guanidine] (cyclo(CSRS[tBuAla]PPI[Pen]I[Dap][Dap]I); disulfide 1-9) | 236 | 340 | 46
11 | CC[C@H](C)[C@@H]1NC(=O)[C@H](C)NC(=O)[C@@H](N)CSSC[C@@H](C(N)=O)NC(=O)[C@H](CC(=O)O)NC(=O)[C@@H]2CCCN2C(=O)[C@H]([C@@H](C)CC)NC(=O)[C@H]2NC(=O)[C@H]([C@@H](C)CC)NC(=O)[C@@H]3CCCN3C(=O)[C@@H]3CCCN3C(=O)[C@H](CC(C)(C)C)NC(=O)[C@H](CO)NC(=O)[C@H](CCCNC(=N)N)NC(=O)[C@H](CO)NC(=O)[C@H](CSSC2(C)C)NC1=O [Example 50] (H-CAICSRS[tBuAla]PPI[Pen]IPDC-NH2; disulfide 1-16, 4-12) | 228 | 210 | 13
12 | CC[C@H](C)[C@@H]1NC(=O)NC(=O)[C@H](CCCN)NC(=O)[C@@H]2CCCN2C(=O)[C@H]([C@@H](C)CC)NC(=O)[C@H]2NC(=O)[C@H]([C@@H](C)CC)NC(=O)[C@@H]3CCCN3C(=O)[C@@H]3CCCN3C(=O)[C@H](CC(C)(C)C)NC(=O)[C@H](CO)NC(=O)[C@H](CCCNC(=N)NC)NC(=O)[C@H](CO)NC(=O)[C@H](CSSC2(C)C)NC1=O [Example 96] (cyclo([Arg(Me)]S[tBuAla]PPI[Pen]IP[X5]ICS); disulfide 7-12) | 103 | 400 | 23
